We go through four compounds from ChEMBL document CHEMBL1201862, “PubChem BioAssay data set” (2004).

Test systems include SN12C; HOP-62; NCI/ADR-RES; MDA-MB-435; NCI-H460; Malme-3M; TK-10; HCT-15; SK-MEL-28; HOP-92; EKVX; SF-268; SF-539; HCT-116; RXF 393; SW-620; U-251; MOLT-4; SK-MEL-5; CCRF-CEM.
What all share (assay): inhibition of tumour cell growth, NCI panel, 48 h

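Dose response: 5 concentrations. Exposure: 48 h. Format: 96-well plates. Endpoint: linear interpolation; highest concentration if not reached. Here, GI50 denotes the concentration required for 50% inhibition of growth.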 Activity calls are given as the source filed them. Cut-off read from the data, not from the text of the source: active = GI50 up to about 1.1 µM and inactive = higher.

As to `OCCOCn1nncc1Cn1ncc2c(O)ncnc21`, the GI50 with SN12C was > 100 µM (inactive); in the experiment with HOP-62 it was > 100 µM (inactive); with NCI/ADR-RES, > 100 µM (inactive); with MDA-MB-435, 26.9 µM (inactive); in the experiment on NCI-H460, 49.4 µM (inactive); with Malme-3M, > 100 µM (inactive). Further, the GI50 in the experiment with TK-10 is > 100 µM (inactive); with HCT-15, above 100 µM; in the experiment with SK-MEL-28 it was > 100 µM (inactive); with HOP-92 it was > 100 µM (inactive); with EKVX, > 100 µM (inactive); in the experiment with SF-268, > 100 µM (inactive). For the same compound, the GI50 in the experiment on SF-539 is > 100 µM (inactive); in the experiment on HCT-116, > 100 µM (inactive); in the experiment with RXF 393 it was > 100 µM (inactive); in the experiment on SW-620 it was 31.8 µM (inactive); in the experiment with U-251, > 100 µM (inactive); in the experiment with MOLT-4, 40 µM (inactive). For the same compound, the GI50 in the experiment with SK-MEL-5 was 47.5 µM (inactive).
Turning to `CC(C)(CN1CCCCC1)C(=O)CC(SCCS(=O)(=O)O)c1ccc(Cl)c(Cl)c1` (stereo not given), the GI50 in the experiment with SN12C is 3.46 µM (inactive); in the experiment with HOP-62, 6.47 µM (inactive); in the experiment on CCRF-CEM, 2.07 µM (inactive); in the experiment with NCI/ADR-RES, 3.21 µM (inactive); in the experiment with MDA-MB-435, 2.21 µM (inactive); in the experiment with NCI-H460 it was 2.22 µM (inactive). Also, the GI50 is 4.1 µM (inactive) in the experiment on Malme-3M; 5.46 µM (inactive) with TK-10; 2.07 µM in the experiment with HCT-15; 1.76 µM (inactive) in the experiment with HOP-92; 6.59 µM (inactive) in the experiment on EKVX; 3.72 µM (inactive) with SF-268. For the same compound, the GI50 was 2.65 µM (inactive) in the experiment on SF-539; 2.59 µM (inactive) in the experiment with HCT-116; 3.16 µM (inactive) in the experiment on RXF 393; 2.22 µM (inactive) with SW-620; 7.13 µM (inactive) in the experiment on U-251; 3.61 µM (inactive) with MOLT-4. For the same compound, in the experiment with SK-MEL-5, the GI50 is 8.73 µM (inactive).
Turning to `CC1(C)CN(CC(=O)O)CC(Cc2ccc(OCC(=O)O)cc2)N(CC(=O)O)CC(C)(C)SS1` (stereo not given), the GI50 with SN12C, with HOP-62, with NCI/ADR-RES, in the experiment on MDA-MB-435, in the experiment on NCI-H460 and with Malme-3M was > 100 µM (inactive) in each case. In addition, the GI50 in the experiment with TK-10 is > 100 µM (inactive); in the experiment with HCT-15 it was above 100 µM; in the experiment on SK-MEL-28, > 100 µM (inactive); in the experiment with HOP-92, > 100 µM (inactive); in the experiment with EKVX, > 100 µM (inactive); in the experiment on SF-268, > 100 µM (inactive). The GI50 in the experiment with SF-539, with HCT-116, in the experiment on RXF 393, in the experiment with SW-620, in the experiment on U-251 and with MOLT-4 was > 100 µM (inactive) throughout. Also, the GI50 in the experiment on SK-MEL-5 is > 100 µM (inactive).
`Cc1c(C)c(C)c(-n2c(=O)n(C)c(=O)n2-n2c(=O)n(C)c(=O)n2-c2c(C)c(C)c(C)c(C)c2C)c(C)c1C`: the GI50 with SN12C was > 100 µM (inactive); in the experiment on NCI/ADR-RES, 61.2 µM (inactive); in the experiment with MDA-MB-435, > 100 µM (inactive); in the experiment with NCI-H460 it was > 100 µM (inactive); in the experiment on Malme-3M, > 100 µM (inactive); in the experiment on TK-10, > 100 µM (inactive). For the same compound, the GI50 with HCT-15 was above 100 µM; in the experiment on SK-MEL-28 it was > 100 µM (inactive); with HOP-92 it was > 100 µM (inactive); with EKVX, > 100 µM (inactive); in the experiment with SF-268, > 100 µM (inactive); in the experiment with SF-539 it was > 100 µM (inactive). The GI50 is > 100 µM (inactive) with HCT-116; > 100 µM (inactive) with RXF 393; > 100 µM (inactive) in the experiment with SW-620; > 100 µM (inactive) in the experiment on U-251; 40 µM (inactive) with MOLT-4; > 100 µM (inactive) with SK-MEL-5.
